# According to patent publication US10493048B2 (Neurocentria, Inc., priority 2015, dated 2019):
# Legend:
# [1] = tested on: cultured rat hippocampal neurons; test: Intracellular free Mg2+ analysis (Magnesium Green) in hippocampal neuron cultures
# Description: (§3) Neurons were plated onto Matrigel® (BD)-coated 8×8 mm coverslips or 6-well cell plates (Corning).
# [Mg^2+]i was determined by using Magnesium Green™ (MgGreen, Invitrogen).
# Where F(a.u.) is the mean fluorescent density (arbitrary units) in the branch of interest which was quantified by using Image-Pro Plus software (IPP, Media Cybernetics, Carlsbad, Calif.), and Ddiameter is the mean width of the same selected branch in DIC image.
# hippocampal neurons [2] = test: Functional terminal density by FM1-43 imaging
# Description: as §3
# Background FM, determined by imaging after unloading of FM dye following 480 APs at 2 Hz, was subtracted from the physiological action potential image. Terminals containing detectable amount of FM after subtraction were considered to be functional.
# FM 1-43+ puncta number per μm^2 of dendrite was used to estimate functional presynaptic terminal density.
# hippocampal neurons [3] = conditions: threonate 0-150 μM, 2 days
# Description: (§1) For chemical structure see supplemental FIG. 1.
# Neuronal cultures were washed three times in 0.01 M PBS followed by fixation for 20 min in 4% paraformaldehyde at 4° C. The neuronal culture coverslips were then washed in PBS before incubation in blocking solution containing 0.1% Triton X-100 and 1% bovine serum albumin for 30 min at room temperature. […] Finally, neurons were mounted onto slides with anti-fade fluorescent mounting medium (Vector Laboratories) and stored at 4° C. for 2 days.
# Cultures were imaged with a confocal laser inverted microscope (Olympus IX-70) equipped with a 60× (NA 1.2) objective. […] The density of synaptophysin (Syn) and PSD-95 was estimated from images by analyzing with IPP. The puncta of Syn and PSD-95, localized at the dendrites labeled by the neuronal marker MAP2, were counted manually. To determine the density of Syn and PSD-95 colocalization, we aligned two sets of images and resulting yellow clusters (Syn: red; PSD-95: green) localized at dendritic were quantified. Fluorescence spots (red and green) having a diameter between 0.1 and 0.6 μm were classified.
# hNSC-derived neurons = tested on: hNSC-derived neurons
# Description: Human fetal cortices-derived neural stem cells (hNSC; Angecon, China) were cultured in hNSC medium (Angecon) according to guidelines provided by Angecon. hNSCs were maintained in this medium for 10-14 days, passaged using Accutase (Invitrogen), washed and replated at a dilution of 1:3 to 1:5.
# A previously described differentiation protocol was used to differentiate hNSCs to neurons. Briefly, hNSC cultures were dissociated into single cells with Accutase, and then plated on polyornithine/laminin (Sigma)-coated 6-well plates at 50,000 cells per cm^2 in neural maintenance medium with EGF (Invitrogen) and FGF2 (Pepro Tech) at a concentration of 10 ng ml^−1. Neural maintenance medium consists of a 1:1 mixture of DMEM/F12 and Neurobasal medium (Invitrogen), 1×N2 (Invitrogen), 1×B27 (Invitrogen), 1 mM L-glutamine, 0.1 mM non-essential amino acids, 5 μg ml^−1 insulin, 0.1 mM 2-mercaptoethanol, 25 U ml^−1 penicillin and […] streptomycin. […] Neurons were maintained 10-14 days in this medium; medium was replaced every day. When neuroepithelial cells appeared, Dispase (Roche) was used to collect cells. They were replated in neural maintenance medium with EGF and FGF2 at 20 ng ml^−1 for 2-4 days, then changed to neural maintenance medium and cultured for up to 80 days, replacing medium every other day.
# (§2) Proteins were transferred to PVDF membranes (Millipore), probed with primary antibodies against Synaptophysin (Millipore), RIM1 and Rab3a (Synaptic System), PSD-95, NR2B, β-tubulin and/or β-actin (all from Cell Signaling Technology) and then followed by an appropriate HRP-coupled secondary antibody (Cell Signaling Technology). The signals were detected by ECL detection reagent (GE Healthcare) and captured on autoradiography film (Kodak). For quantification of protein signals, the integrated optical density (IOD) was measured with IPP, and β-tubulin or β-actin on the same lane served as loading controls.
# hippocampal neurons [4] = conditions: threonate (150 M) for 2 days, 0.6 Mg, p<0.01
# Excerpt: Mitochondrial transmembrane potential (Δψm) of hippocampal neurons was observed microscopically (Olympus IX-70) by using 5,5′,6,6′-tetrachloro-1,1′,3,3′-tetraethylbenzimidazolylcarbocyanine iodide (JC-1, Invitrogen). The monomeric form of JC-1 has an emission maximum at 529 nm. At higher concentrations or potentials the dye forms red fluorescent J-aggregates with an emission maximum of 590 nm. The ratio of J-aggregate/J-monomer is used as an estimate of Δψm.
# hippocampal neurons [5] = conditions: threonate 0-150 μM, 2 days; remark: listed apart in the source
# Excerpt: as §1, §2
# [6] = threonate 150 μM, time course 0-36 hr
# [7] = human neurons treated at day 90, dose-dependent, up to 400 μM
structure (smiles),measurement,setting,value
"C=C1[C@@H](C)[C@H]2[C@H](Cc3ccccc3)NC(=O)[C@]23OC(=O)/C=C/[C@H](O)CCC[C@@H](C)C/C=C/[C@H]3[C@@H]1O [CB, cytochalasin B, reference compound]","intracellular [Mg2+] relative to control, inhibitor alone","[1]; 4 hr, without threonate",did not alter
same,"density of functional terminals relative to control, inhibitor alone","hippocampal neurons [2]; 4 hr, without threonate",did not affect
"NCC(=O)O [glycinate, reference compound]","ability to increase intracellular [Mg2+], comparison of anions",[1],threonate was the only one able to increase
same,"effect on functional terminal density, comparison of anions",hippocampal neurons [2],no significant effects
"O=C(CCc1ccc(O)cc1)c1c(O)cc(O)cc1O [phloretin, reference compound]","decrease of intracellular [Mg2+] relative to placebo, inhibitor alone","[1]; 4 hr, without threonate, p<0.01",10.4%
same,"decrease of functional terminal density, inhibitor alone","hippocampal neurons [2]; 4 hr, without threonate, p<0.05",10.5%
"O=C(O)[C@H](O)[C@@H](O)CO [threonate, (2R,3S)-2,3,4-trihydroxybutanoate]",colocalization of Syn/PSD-95,hippocampal neurons [3],significantly upregulated
same,density of PSD-95 puncta,hippocampal neurons [3],significantly upregulated
same,density of Syn puncta,hippocampal neurons [3],significantly upregulated
same,threonate-mediated increase of intracellular [Mg2+] in the presence of CB,"[1]; 4 hr, with cytochalasin B (GLUTs inhibitor)",prevented
same,increase of intracellular [Mg2+] in the presence of phloretin,"[1]; 4 hr, with phloretin (SVCT2 inhibitor), p<0.0001",23.5%
same,threonate concentration that induced the largest change in intracellular [Mg2+],"[1]; 2 day treatment, 0-200 μM tested",150 µM
same,effect on intracellular [Mg2+],"[1]; 2 day treatment, threonate 0-200 μM, extracellular [Mg2+] 0.6, 0.8 or 1.2 mM",increase of intracellular [Mg^2+] in a dosage-dependent manner
same,effect on intracellular [Mg2+] at reduced extracellular [Mg2+],"[1]; threonate 150 μM, 4 hr, 0.1 mM extracellular [Mg2+]",no longer induced elevation
same,increase of intracellular [Mg2+],"[1]; threonate 150 μM, 4 hr, 0.6 mM extracellular [Mg2+] (Example 3)",~27%
same,persistence of the intracellular [Mg2+] increase,[1]; [6],persisted for the entire course of the experiment
same,time at which effect on intracellular [Mg2+] was maximal,[1]; [6],2 h
same,increase of intracellular [Mg2+],"[1]; threonate (150 mM), 4 hr, 0.6 mM [Mg2+]o (Example 7), p<0.0001",29.6%
same,threonate dose response curve in human neurons compared to the rat dose response curve,hNSC-derived neurons; effects continued to increase even at 400 μM,shifted toward a higher concentration
same,PSD-95 expression (Western blot),hNSC-derived neurons; [7],significantly increased
same,Syn expression (Western blot),hNSC-derived neurons; [7],significantly increased
same,effect on functional terminal density in the presence of CB,"hippocampal neurons [2]; threonate 150 μM, 4 hr, with cytochalasin B",unable to elevate
same,increase of functional terminal density relative to control in the presence of phloretin,"hippocampal neurons [2]; threonate 150 μM, 4 hr, with phloretin, p<0.001",20.4%
same,"number of functional terminals, dose dependence","hippocampal neurons [2]; threonate 50-150 μM, 2 days, extracellular [Mg2+] 0.6, 0.8 or 1.2 mM",increased in threonate-treated neurons in a dose-dependent manner
same,effect on functional terminal density at reduced extracellular [Mg2+],"hippocampal neurons [2]; threonate 4 hr, 0.1 mM extracellular [Mg2+]",prevented threonate from increasing functional terminal density
same,increase of functional terminal density,"hippocampal neurons [2]; threonate (150 M) for 4 hr, 0.6 mM extracellular [Mg2+] (Example 5)",23%
same,increase of mitochondrial membrane potential ΔΨm (JC-1 aggregate/monomer ratio),hippocampal neurons [4],49.6%
same,NR2B-containing NMDAR expression (Western blot),hippocampal neurons [5],significantly upregulated
same,PSD-95 expression (Western blot),hippocampal neurons [5],significantly increased
same,RIM1 expression (Western blot),hippocampal neurons [5],significantly increased
same,Rab3a expression (Western blot),hippocampal neurons [5],significantly increased
same,Syn expression (Western blot),hippocampal neurons [5],significantly increased
